# From PMC2866470, “Teratogenic Effects of Diatom Metabolites on Sea Urchin Paracentrotus lividus Embryos” (Marine Drugs, 2010)
# Read-outs that look alike come from different tables or passages of the source.
# Assays:
# [1] = system: Sphaerechinus granularis embryos; details: cited from earlier work
# [2] = system: Paracentrotus lividus embryos; assay: Embryotoxicity test: inhibition of first cell cleavage in sea urchin embryos; assay type: in vivo; details: for Concentration at which arrest (100% blockage) of cell cleavage occurs: circa 90 min after fertilization, 20 °C
# Description: (§1) Paracentrotus lividus (Lamarck) sea urchins were collected during the breeding season by SCUBA diving in the Gulf of Naples and transported in an insulated box to the laboratory, within 1 h after collection, and maintained in captivity in well-aerated water at 18 °C in an open circuit. Living organisms were injected with 0.2 mL of 0.2 M acetylcholine (SIGMA-Aldrich, Milan, Italy) through the peribuccal membrane to induce gamete ejection. Spawned eggs were allowed to settle and were washed three times with 0.22 micron filtered sea water (FSW); eggs were then diluted to a final concentration of 3000 eggs mL^−1. Concentrated sperm was collected ‘dry’, mixing samples from at least three different males and stocking undiluted at +4 °C. Sperm mix was diluted 10 μL in 10 mL SW just before insemination and an aliquot of circa 100 μL of this solution was added to 100 mL of egg suspension. At 2–4 min after sperm addition the eggs were checked for successful fertilization and excess sperm were removed by washing the eggs once with FSW.
# (§2) PUAs and PUFAs were tested on sea urchin early development. […] All concentrations were tested on egg groups collected from three different females. Groups of eggs from the same animals were used as controls. To test the effect of the solvent, other groups of embryos were incubated in 10% methanol, which was the highest concentration of solvent used for incubation experiments. Embryos were kept at 20 °C in a controlled temperature chamber under 12:12 light:dark cycle.
# Cleavage inhibition was assessed by counting at least 200 embryos for each well.
# Statistical analysis and IC50 calculation were made by using the Prism software (GraphPad software inc. La Jolla, CA, USA).
# [3] = system: Paracentrotus lividus embryos; assay: Embryotoxicity test: percentage of hatched sea urchin larvae after 24 hours; assay type: in vivo; details: for Effect on the transition to swimming blastula / larval stage: in vivo; for Concentration of total inhibition of hatching viability (0% of hatched larvae) / Hatching viability: 24 hours; for Hatching viability: at concentrations of circa 3.0 μM
# Description: as §1
# as §2, with “cycle. […]” for “cycle.”
# [4] = system: Paracentrotus lividus embryos and pluteus larvae; assay: Teratogenic effect after 48 hours of incubation (abnormalities and mortality of larvae); assay type: in vivo
# Description: PUAs were also tested for their teratogenic effect after long term incubations. After 48 hours of incubation with test compounds, the number of abnormalities and mortality were assessed according to Pagano et al.. Embryos at various stages were observed under a light microscope (Zeiss Axiovert 135TV). Pictures were taken using a Zeiss Axiocam connected directly to the microscope.
# [5] = system: Paracentrotus lividus embryos and pluteus larvae; assay: TUNEL fluorescence labeling of apoptosis in larvae after 48 hours of exposure; assay type: in vivo
# Description: P. lividus embryos were incubated as described above in decadienal at concentrations ranging from 1.32 to 6.58 μM for 48 hours. Pluteus larvae were fixed in paraformaldehyde 4% (SIGMA-Aldrich, Milan, Italy) in sea water for 2 hours at room temperature. Fixed sea urchin embryos were washed several times in phosphate saline buffer 10 mM at pH 7.4 (PBS) to remove paraformaldehyde and then incubated for 1 h in a solution of 0.1% Triton X-100 and 0.1% sodium citrate, at 4 °C. Apoptosis was assessed using TdT-mediated dUTP nick end labeling (TUNEL) (Roche Diagnostics) according to manufacturer’s instructions. After washing in PBS containing 1% bovine albumin serum (BSA, Sigma-Aldrich), treated samples were incubated at 37 °C for 90 min in TUNEL solution in a humidified chamber, in the dark. Control embryos were fixed and stained as described above. To obtain TUNEL-positive control samples, embryos were incubated for 10 min in 50 mM Tris-HCl, pH 7.5, 10 mM MgCl2, 0.1% dithiothreitol, containing 250 μg mL^−1 DNase I (grade II from bovine pancreas; Boehringer GmbH, Mannheim, Germany) at room temperature. Negative controls were obtained by incubating embryos in label solution only, as recommended by the manufacturer. […] Pictures were taken using a Zeiss Axiocam connected directly to the microscope.
# [6] = Decadienal stability in nutrient enriched sea water (f/2 medium), spectrophotometric; assay type: physicochemical
# Description: Decadienal stock solution was prepared by diluting a known amount of the substance (determined by weight) in methanol. The methanolic solution was further diluted in autoclaved f/2 medium to achieve decadienal concentration ranging from 0.66 to 32.89 μM. A standard curve was generated by reporting the absorbance at 274 nm of decadienal as a function of its concentration (each determination was performed in triplicate).
# To verify decadienal stability, solutions were prepared in triplicate at a starting concentration of 8.96 μM in 250 mL f/2 and incubated in a polystyrene culture flask closed with a screw cap. The UV spectrum and absorbance reading at 274 nm were assessed with time. Decadienal concentration was determined on the basis of a standard curve.
# Ciona intestinalis = system: Ciona intestinalis; design: method as in PMID 12874802; details: printed equivalent 1.32 μM; cited from earlier work
# pelagic copepods = system: pelagic copepods; design: method as in ref 28 = [28]; 28 Ianora A Romano G Carotenuto Y Esposito F Roncalli V Buttino I Miralto A Impact of the diatom oxylipin 15S-HEPE on the reproductive success of the copepod Temora stylifera Hydrobiologia 2010 submit; details: printed equivalent 6.58 μM; cited from earlier work
# early P. lividus embryos = system: early P. lividus embryos; design: method as in PMID 12939379; details: cited from earlier work
# [7] = system: Paracentrotus lividus embryos; design: method as in ref 18 = [18]; 18 Sellem F Pesando D Bodennec G El Abed A Girard JP Toxic effects of Gymnodinium cf. mikimotoi unsaturated fatty acids to gametes and embryos of the sea urchin Paracentrotus lividus Water Res 2000 34; details: P. lividus; cited from earlier work
compound,measurement,setting,value
"O=C/C=C/C=C\CCCC(=O)O [9-oxo-nona-5Z,7E-dienoic acid, reference compound]",Activity on embryo cleavage,[1]; S. granularis embryos,not inhibitory
"CCC=CCC=CCC=CCC=CCC=CCC=CCCC(=O)O [DHA, 4,7,10,13,16,19-docosahexaenoic acid]",Percentage of embryos that underwent first cleavage,"[2]; at 304 μM, 90 min after fertilization",34%
same,Effect on the transition to swimming blastula / larval stage,[3],interfered with the transition to the larval stage
CC/C=C\C/C=C\C/C=C\C/C=C\C/C=C\CCCC(=O)OC [EPA methyl-ester],Activity on cleavage compared with EPA,[2]; in vivo,drastic reduction in the activity
same,Concentration of total inhibition of hatching viability (0% of hatched larvae),[3],158 µM
"CCC=CCC=CCC=CCC=CCC=CCCCC(=O)O [EPA, 5,8,11,14,17-eicosapentaenoic acid]",Concentration at which arrest (100% blockage) of cell cleavage occurs,[2]; circa 120 eggs mL−1,331 µM
same,Concentration of total inhibition of hatching viability (0% of hatched larvae),[3],approximately 83 μM
same,Effect on the transition to swimming blastula / larval stage,[3],interfered with the transition to the larval stage
"CCCCC/C=C/C=C/C=O [decadienal, 2-trans,4-trans-decadienal]",IC50,"[2]; 95% CI = 2.96 to 3.06 μM, circa 120 eggs mL−1",3.01 µM
same,Concentration at which arrest (100% blockage) of cell cleavage occurs,[2]; circa 120 eggs mL−1,5.26 µM
same,Concentration of total inhibition of hatching viability (0% of hatched larvae),[3],3.95 µM
same,Hatching viability,[3],< 50%
same,Abnormal plutei,"[4]; 1.32 μM, 48 hours, ± SD",11.08% ± 4.4
same,Retarded larvae,"[4]; 1.32 μM, 48 hours, ± SD",11.64% ± 8.2
same,Dead and pre-hatching embryos,"[4]; 2.63 μM, 48 hours, ±22.42 SD",up to 29.4%
same,Dead embryos,"[4]; 3.95 μM, 48 hours, ± SD",53.7% (±24.7 SD)
same,Embryos not able to survive,"[4]; 5.26 μM, 48 hours, ± SD",85.1% (±24.7 SD)
same,Concentration at which embryos were unable to develop beyond the blastula stage,[4]; in vivo,≥ 3.95 µM
same,Sub-lethal concentrations that increased abnormal plutei and delayed development,"[4]; newly fertilized eggs, 48 hours",1.32 to 5.26 µM
same,Number of embryos presenting a high degree of apoptosis (TUNEL),[5]; 1.32 μM,more or less the same as in the control
same,Larvae TUNEL-positive in the entire body,[5]; 2.63 μM,approximately 80%
same,Larvae TUNEL-positive,[5]; 3.95 μM,almost all of the larvae were positively stained
same,Decadienal concentration in f/2 medium,"[6]; after 24 hours (start of the gradual decrease), 8.96 μM starting concentration",7.92 (±0.3 SD) μM
same,Change of initial concentration,"[6]; after 24 hours, f/2 medium, 8.96 μM starting concentration",11.70%
same,Decadienal concentration in f/2 medium,"[6]; after seven days of incubation, natural light, 20 °C, closed vessel, 8.96 μM starting concentration",4.63 (±0.017) μM
same,Time for which the aldehyde can be detected spectrophotometrically,[6]; f/2 medium,up to 14 days
same,Time without significant change of the initial concentration,"[6]; f/2 medium, 8.96 μM starting concentration, closed flask, 20 °C",at least six
same,Minimum dose to inhibit 100% of embryo cleavage,[1]; S. granularis embryos,about 20 μM
same,IC50,"[1]; S. granularis embryos, read-out: IC50 of cleavage inhibition",7.3 µM
same,IC50,"[1]; S. granularis, low egg density, read-out: IC50 of blockage of cell divisions in newly fertilized eggs",1.3 µM
same,Sub-lethal concentration inducing abnormal tadpole larvae,Ciona intestinalis,0.2 µg/mL
same,Concentration to induce malformations and apoptosis,pelagic copepods,1000 ng/mL
same,Concentration inducing apoptosis relative to the dose required to induce 100% cleavage inhibition,early P. lividus embryos,five
"CC/C=C/C=C/C=O [heptadienal, 2-trans,4-trans-heptadienal]",Concentration at which arrest (100% blockage) of cell cleavage occurs,[2]; circa 120 eggs mL−1,27.27 µM
same,Concentration of total inhibition of hatching viability (0% of hatched larvae),[3],11.36 µM
same,Hatching viability,[3],> 90%
"CCCCCC=CCC=CCCCCCCCC(=O)O [linoleic, 9,12-octadecadienoic acid]",Activity on cleavage,"[2]; highest concentration tested 357 μM, 90 min after fertilization",no activity
same,Hatching (percentage of embryos),[3]; at 357 μM,60%
CCC=CCC=CCC=CCC=CCC=CCC(=O)O [octadecapentaenoic acid],Concentration of total blockage of first cleavage,[7],≥ 1 mM
"CCC/C=C/C=C/C=O [octadienal, 2-trans,4-trans–octadienal]",Concentration at which arrest (100% blockage) of cell cleavage occurs,[2]; circa 120 eggs mL−1,16.13 µM
same,Concentration of total inhibition of hatching viability (0% of hatched larvae),[3],8.08 µM
same,Hatching viability,[3],> 90%
"C=CC/C=C/C=C/C=O [octatrienal, 2-trans,4-trans,7-octatrienal]",Concentration at which arrest (100% blockage) of cell cleavage occurs,[2]; circa 120 eggs mL−1,11.47 µM
"CCC=CCC=CCC=CCC=CCCCCC(=O)O [stearidonic acid, 6,9,12,15-octadecatetraenoic acid]",Concentration at which arrest (100% blockage) of cell cleavage occurs,[2]; circa 120 eggs mL−1,181 µM
same,Effect on the transition to swimming blastula / larval stage,[3],interfered with the transition to the larval stage
CCCCCCCCCCCCC=O [tridecanal],Effect on first cleavage,"[2]; up to 25 μM, higher concentrations not tested due to solubility problems in sea water",did not interfere with first cleavage
"CCCCCC=CCC=CCC=CCCCCC(=O)O [γ-linolenic, 6,9,12-octadecatrienoic acid]",Activity on cleavage,"[2]; highest concentration tested 359 μM, 90 min after fertilization",no activity
same,Hatching (percentage of embryos),[3]; at 360 μM,50%
